In patent publication US20260262643A1, “HERBICIDAL BENZOXAZINES” (FMC CORPORATION, priority 2022, published 2026):

Tests used:
[1] = tested on: kochia; test: Test A preemergence; format: in vivo, Bassia scoparia
Procedure, shortened: (§1)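 Greenhouse pot test, 10 days. Compound (non-phytotoxic solvent, surfactant) sprayed on soil at seeding or on seedlings at one- to two-leaf stage. Visual injury rated 0–100 against untreated plants.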

[2] = tested on: soybean; test: Test A preemergence; format: in vivo, Glycine max
Procedure, shortened: as §1

[3] = tested on: oat, wild; test: Test A preemergence; format: in vivo, Avena fatua
Procedure, shortened: as §1

[4] = tested on: pigweed, palmer; test: Test A postemergence; format: in vivo, Amaranthus palmeri
Procedure, shortened: as §1

[5] = tested on: kochia; test: Test A postemergence; format: in vivo, Bassia scoparia
Procedure, shortened: as §1

[6] = tested on: goosegrass; test: Test A postemergence; format: in vivo, Eleusine indica
Procedure, shortened: as §1

[7] = tested on: soybean; test: Test A postemergence; format: in vivo, Glycine max
Procedure, shortened: as §1

[8] = tested on: horseweed; test: Test A postemergence; format: in vivo, Erigeron canadensis
Procedure, shortened: as §1

[9] = tested on: ryegrass, Italian; test: Test A preemergence; format: in vivo, Lolium multiflorum
Procedure, shortened: as §1

[10] = tested on: corn; test: Test A preemergence; format: in vivo, Zea mays
Procedure, shortened: as §1

[11] = tested on: rice; test: Test B flooded paddy test; format: in vivo, Oryza sativa; conditions: 250 g ai/ha, Flood, 13 days, 0 to 100 scale (0 no effect, 100 complete control)
Procedure, shortened: (§2)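 Compound is introduced into paddy water covering soil by 3 cm, treating plants that have reached two leaves. Pots are kept flooded at that depth under greenhouse conditions. Assessment at 13 days gives a 0–100 visual control score.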

[12] = tested on: foxtail, giant; test: Test A preemergence; format: in vivo, Setaria faberi
Procedure, shortened: as §1

[13] = tested on: blackgrass; test: Test A preemergence; format: in vivo, Alopecurus myosuroides
Procedure, shortened: as §1

[14] = tested on: blackgrass; test: Test A postemergence; format: in vivo, Alopecurus myosuroides
Procedure, shortened: as §1

[15] = tested on: ragweed; test: Test A postemergence; format: in vivo, Ambrosia artemisiifolia
Procedure, shortened: as §1

[16] = tested on: sedge, umbrella; test: Test B flooded paddy test; format: in vivo, Cyperus difformis; conditions: 250 g ai/ha, Flood, 13 days, 0 to 100 scale (0 no effect, 100 complete control)
Procedure, shortened: as §2

[17] = tested on: barnyardgrass; test: Test B flooded paddy test; format: in vivo, Echinochloa crus-galli; conditions: 250 g ai/ha, Flood, 13 days, 0 to 100 scale (0 no effect, 100 complete control)
Procedure, shortened: as §2

[18] = tested on: galium; test: Test A postemergence; format: in vivo, Galium aparine
Procedure, shortened: as §1

[19] = tested on: wheat; test: Test A preemergence; format: in vivo, Triticum aestivum
Procedure, shortened: as §1

[20] = tested on: ragweed; test: Test A preemergence; format: in vivo, Ambrosia artemisiifolia
Procedure, shortened: as §1

[21] = tested on: foxtail, giant; test: Test A postemergence; format: in vivo, Setaria faberi
Procedure, shortened: as §1

[22] = tested on: ryegrass, Italian; test: Test A postemergence; format: in vivo, Lolium multiflorum
Procedure, shortened: as §1

[23] = tested on: ducksalad; test: Test B flooded paddy test; format: in vivo, Heteranthera limosa; conditions: 250 g ai/ha, Flood, 13 days, 0 to 100 scale (0 no effect, 100 complete control)
Procedure, shortened: as §2

[24] = tested on: pigweed, palmer; test: Test A preemergence; format: in vivo, Amaranthus palmeri
Procedure, shortened: as §1

[25] = tested on: corn; test: Test A postemergence; format: in vivo, Zea mays
Procedure, shortened: as §1

[26] = tested on: oat, wild; test: Test A postemergence; format: in vivo, Avena fatua
Procedure, shortened: as §1

[27] = tested on: wheat; test: Test A postemergence; format: in vivo, Triticum aestivum
Procedure, shortened: as §1

[28] = tested on: goosegrass; test: Test A preemergence; format: in vivo, Eleusine indica
Procedure, shortened: as §1

[29] = 125 g ai/ha, visual injury after 10 days, 0 to 100 scale, 0 is no effect, 100 is complete control
[30] = 500 g ai/ha, 0 to 100 scale (0 no effect, 100 complete control), 10 days
[31] = 125 g ai/ha, postemergence, 10 days, visual injury, 0 to 100 scale (0 no effect, 100 complete control)
[32] = 500 g ai/ha, Postemergence, 0 to 100 scale
[33] = 125 g ai/ha, postemergence, 10 days, 0 to 100 scale, 0 no effect, 100 complete control
[34] = 500 g ai/ha, postemergence, 10 days, visual injury, 0 to 100 scale (0 no effect, 100 complete control)

Cc1cccc2c1O[C@@H](C)CN2C(=O)c1cc(-n2cncn2)ccc1F [Compound 50]
Plant response rating, Kochia [1, 29]: 0
Plant response rating, Kochia [1, 30]: 10
Plant response rating, Soybean [2, 29]: 30
Plant response rating, Soybean [2, 30]: 90
Plant response rating, Oat, Wild [3, 29]: 20
Plant response rating, Oat, Wild [3, 30]: 90
Plant response rating, Pigweed, Palmer [4, 31]: 30
Plant response rating, Pigweed, Palmer [4, 32]: 30
Plant response rating, Kochia [5, 31]: 10
Plant response rating, Kochia [5, 32]: 70
Plant response rating, Goosegrass [6, 31]: 50
Plant response rating, Goosegrass [6, 32]: 90
Plant response rating, Soybean [7, 31]: 100
Plant response rating, Soybean [7, 32]: 100
Plant response rating, Horseweed [8, 31]: 0
Plant response rating, Horseweed [8, 32]: 10
Plant response rating, Ryegrass, Italian [9, 29]: 80
Plant response rating, Ryegrass, Italian [9, 30]: 90
Plant response rating, Corn [10, 29]: 0
Plant response rating, Corn [10, 30]: 0
Plant response rating, Rice [11]: 0
Plant response rating, Foxtail, Giant [12, 29]: 90
Plant response rating, Foxtail, Giant [12, 30]: 100
Plant response rating, Blackgrass [13, 29]: 40
Plant response rating, Blackgrass [13, 30]: 80
Plant response rating, Blackgrass [14, 31]: 50
Plant response rating, Blackgrass [14, 32]: 70
Plant response rating, Ragweed [15, 31]: 20
Plant response rating, Ragweed [15, 32]: 40
Plant response rating, Sedge, Umbrella [16]: 0
Plant response rating, Barnyardgrass [17]: 0
Plant response rating, Galium [18, 31]: 60
Plant response rating, Galium [18, 32]: 100
Plant response rating, Wheat [19, 29]: 0
Plant response rating, Wheat [19, 30]: 50
Plant response rating, Ragweed [20, 29]: 0
Plant response rating, Ragweed [20, 30]: 30
Plant response rating, Foxtail, Giant [21, 31]: 70
Plant response rating, Foxtail, Giant [21, 32]: 90
Plant response rating, Ryegrass, Italian [22, 31]: 50
Plant response rating, Ryegrass, Italian [22, 32]: 80
Plant response rating, Ducksalad [23]: 0
Plant response rating, Pigweed, Palmer [24, 29]: 0
Plant response rating, Pigweed, Palmer [24, 30]: 100
Plant response rating, Corn [25, 31]: 30
Plant response rating, Corn [25, 32]: 60
Plant response rating, Oat, Wild [26, 31]: 20
Plant response rating, Oat, Wild [26, 32]: 50
Plant response rating, Wheat [27, 31]: 40
Plant response rating, Wheat [27, 32]: 70
Plant response rating, Goosegrass [28, 29]: 90
Plant response rating, Goosegrass [28, 30]: 100

C#CCOc1ccc(-n2cnc(C(C)C)n2)cc1C(=O)N1C[C@H](C)Oc2c(Cl)cccc21 [Compound 107]
Plant response rating, Kochia [1, 29]: 20
Plant response rating, Kochia [1, 30]: 80
Plant response rating, Soybean [2, 29]: 50
Plant response rating, Soybean [2, 30]: 70
Plant response rating, Oat, Wild [3, 29]: 60
Plant response rating, Oat, Wild [3, 30]: 70
Pigweed, Palmer plant response rating [4, 33]: 90
Plant response rating, Pigweed, Palmer [4, 34]: 100
Kochia plant response rating [5, 33]: 80
Plant response rating, Kochia [5, 34]: 90
Goosegrass plant response rating [6, 33]: 70
Plant response rating, Goosegrass [6, 34]: 100
Soybean plant response rating [7, 33]: 100
Plant response rating, Soybean [7, 34]: 100
Horseweed plant response rating [8, 33]: 20
Plant response rating, Horseweed [8, 34]: 30
Plant response rating, Ryegrass, Italian [9, 29]: 80
Plant response rating, Ryegrass, Italian [9, 30]: 100
Plant response rating, Corn [10, 29]: 10
Plant response rating, Corn [10, 30]: 50
Plant response rating, Rice [11]: 20
Plant response rating, Foxtail, Giant [12, 29]: 100
Plant response rating, Foxtail, Giant [12, 30]: 100
Plant response rating, Blackgrass [13, 29]: 20
Plant response rating, Blackgrass [13, 30]: 40
Blackgrass plant response rating [14, 33]: 60
Plant response rating, Blackgrass [14, 34]: 80
Ragweed plant response rating [15, 33]: 50
Plant response rating, Ragweed [15, 34]: 70
Plant response rating, Sedge, Umbrella [16]: 90
Plant response rating, Barnyardgrass [17]: 70
Galium plant response rating [18, 33]: 100
Plant response rating, Galium [18, 34]: 100
Plant response rating, Wheat [19, 29]: 0
Plant response rating, Wheat [19, 30]: 40
Plant response rating, Ragweed [20, 29]: 30
Foxtail, Giant plant response rating [21, 33]: 90
Plant response rating, Foxtail, Giant [21, 34]: 100
Ryegrass, Italian plant response rating [22, 33]: 20
Plant response rating, Ryegrass, Italian [22, 34]: 60
Plant response rating, Ducksalad [23]: 25
Plant response rating, Pigweed, Palmer [24, 29]: 100
Plant response rating, Pigweed, Palmer [24, 30]: 100
Corn plant response rating [25, 33]: 70
Plant response rating, Corn [25, 34]: 80
Oat, Wild plant response rating [26, 33]: 30
Plant response rating, Oat, Wild [26, 34]: 70
Wheat plant response rating [27, 33]: 30
Plant response rating, Wheat [27, 34]: 30
Plant response rating, Goosegrass [28, 29]: 100
Plant response rating, Goosegrass [28, 30]: 100
